Test results from the NIST ThermoML archive (doi:10.1016/j.tca.2009.01.008).

Experiments:
[1] = molar heat capacity at constant pressure; settings: 101.33 kPa, Liquid, Vacuum adiabatic calorimetry
[2] = molar heat capacity at constant pressure; xn = mol fraction of the nth substance listed; settings: 101 kPa, Liquid, Vacuum adiabatic calorimetry

CC(O)CO (centres undefined) [1,2-propanediol]
[1]
Settings | molar heat capacity at constant pressure [J/K/mol]
303.15 K | 192.8
313.15 K | 197
323.15 K | 201.3
333.15 K | 206
343.15 K | 210.6
353.15 K | 215.3

CC(O)CO (centres undefined) [1,2-propanediol] + O
molar heat capacity at constant pressure [J/K/mol], [2]
Settings | 303.15 K | 313.15 K | 323.15 K | 333.15 K | 343.15 K | 353.15 K
x1 = 0.2 | 101.9 | 103 | 104.3 | 105.8 | 107.2 | 108.8
x1 = 0.4 | 127 | 129.4 | 132.1 | 134.9 | 137.7 | 140.7
x1 = 0.5 | 138.9 | 141.9 | 145.1 | 148.7 | 152.1 | 155.6
x1 = 0.6 | 150.3 | 153.9 | 157.7 | 161.8 | 165.8 | 169.9
x1 = 0.8 | 172.1 | 176.4 | 180.9 | 185.8 | 190.6 | 195.5

OCCCOCCCO [4-oxa-1,7-heptanediol]
[1]
Settings | molar heat capacity at constant pressure [J/K/mol]
303.15 K | 329
313.15 K | 335.3
323.15 K | 341.5
333.15 K | 348.8
343.15 K | 355.8
353.15 K | 363.8

OCCCOCCCO [4-oxa-1,7-heptanediol] + O
molar heat capacity at constant pressure [J/K/mol], [2]
Settings | 303.15 K | 313.15 K | 323.15 K | 333.15 K | 343.15 K | 353.15 K
x1 = 0.2 | 129.1 | 130.8 | 132.7 | 135 | 137.1 | 139.5
x1 = 0.4 | 181.8 | 184.9 | 188.2 | 191.9 | 195.5 | 199.6
x1 = 0.5 | 207.2 | 210.9 | 214.7 | 219.3 | 223.5 | 228.3
x1 = 0.6 | 231.9 | 236.2 | 240.7 | 245.8 | 250.8 | 256.3
x1 = 0.8 | 279.7 | 285 | 290.4 | 296.6 | 302.7 | 309.4

OCCOCCO [diethylene glycol]
[1]
Settings | molar heat capacity at constant pressure [J/K/mol]
303.15 K | 248.2
313.15 K | 251.3
323.15 K | 255
333.15 K | 259.2
343.15 K | 263.8
353.15 K | 266.8

OCCOCCO [diethylene glycol] + O
molar heat capacity at constant pressure [J/K/mol], [2]
Settings | 303.15 K | 313.15 K | 323.15 K | 333.15 K | 343.15 K | 353.15 K
x1 = 0.2 | 111.8 | 113.5 | 115.3 | 117.4 | 119.3 | 121.7
x1 = 0.4 | 148.7 | 150.7 | 153.3 | 155.9 | 158.7 | 161.8
x1 = 0.5 | 167.6 | 169.9 | 172.6 | 175.5 | 178.7 | 182.2
x1 = 0.6 | 184.5 | 187.1 | 190.3 | 193.6 | 197.3 | 201.2
x1 = 0.8 | 217.9 | 221.2 | 225 | 229.1 | 233.6 | 238.5

OCCOCCOCCO [triethylene glycol]
[1]
Settings | molar heat capacity at constant pressure [J/K/mol]
303.15 K | 336.3
313.15 K | 339.5
323.15 K | 343.1
333.15 K | 347.9
343.15 K | 353.7
353.15 K | 359.3

OCCOCCOCCO [triethylene glycol] + O
molar heat capacity at constant pressure [J/K/mol], [2]
Settings | 303.15 K | 313.15 K | 323.15 K | 333.15 K | 343.15 K | 353.15 K
x1 = 0.2 | 129.3 | 131 | 132.9 | 135.1 | 137.2 | 139.7
x1 = 0.4 | 184.1 | 186.3 | 189 | 192.1 | 195.2 | 198.7
x1 = 0.5 | 211.3 | 213.6 | 216.5 | 219.8 | 223.4 | 227.3
x1 = 0.6 | 237.8 | 240.5 | 243.7 | 249.7 | 251.8 | 256.1
x1 = 0.8 | 288.3 | 291.8 | 295.7 | 300.3 | 306 | 311.3
